Values of other authors, collected in patent publication US20150024025A1, “ALIGNED N[…] AXONAL RE[…] SPINAL CORD INJURY OR SURGERY” (THE UAB RESEARCH FOUNDATION, priority 2012, published 2015).

Tested on: spinal cord injury

chondroitinase ABC
axonal repair and regeneration in vivo after spinal cord injury: promotes axonal repair and regeneration
